From patent publication US4117003A, “Substituted aromatic naphthalene sulfonamides” (American Cyanamid Company, priority 1977, dated 1978)
Counter-ions that a name gives are not always drawn. Like-named read-outs stand apart in the source and are kept apart here.

Legend:
[1] = test system: whole complement in serum; experiment: Complement Level Reduction Test (in vivo, capillary tube assay of serum); conditions: Cavia porcellus, ip, guinea pig, 200 mg/kg i.p., read-out: In Vivo Activity (Guinea Pig) % Inhibition Intraperitoneal
[2] = test system: late components of human complement (C3-C9); experiment: Test, Code 035 (C3-C9 inhibitor); format: biochemical; conditions: activity in wells of a serial two-fold dilution assay; higher well number indicates higher activity
Excerpt: (§1) This test measures the ability of activated human C1 to destroy fluid phase human C2 in the presence of C4 and appropriate dilutions of the test compound. An active inhibitor protects C2 from C1 and C4; (ii) Test, Code 035 (C3-C9 inhibitor). This test determines the ability of the late components of human complement (C3-C9) to lyse EAC 142 in the presence of appropriate dilutions of the test compound. An active inhibitor protects EAC 142 from lysis by human C3-C9; (iii) Test, Code 036 (C-Shunt inhibitor). In this test human erythrocytes rendered fragile are lysed in autologous serum via the shunt pathway activated by cobra venom factor in the presence of appropriate dilutions of the test compound. Inhibition of the shunt pathway results in failure of lysis; (iv) Forssman Vasculitis Test - Here, the well known complement dependent lesion, Forssman vasculitis, is produced in guinea pigs by intradermal injection of rabbit anti-Forssman antiserum. […]

activated human C1 = molecular target: T1, activated human C1 (Homo sapiens, UniProt P09871); experiment: Test, Code 026 (C1 inhibitor); format: biochemical; conditions: activity in wells of a serial two-fold dilution assay; higher well number indicates higher activity
T1 sequence (P09871 438-688 limits assumed): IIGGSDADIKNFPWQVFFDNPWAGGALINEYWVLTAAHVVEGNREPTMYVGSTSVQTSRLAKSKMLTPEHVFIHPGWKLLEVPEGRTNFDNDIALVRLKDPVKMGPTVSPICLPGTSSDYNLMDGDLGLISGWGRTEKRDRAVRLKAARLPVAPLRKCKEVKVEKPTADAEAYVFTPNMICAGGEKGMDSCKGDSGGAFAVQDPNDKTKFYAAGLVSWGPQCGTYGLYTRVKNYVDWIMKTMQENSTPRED
T1 sequence (P09871 16-437 limits assumed): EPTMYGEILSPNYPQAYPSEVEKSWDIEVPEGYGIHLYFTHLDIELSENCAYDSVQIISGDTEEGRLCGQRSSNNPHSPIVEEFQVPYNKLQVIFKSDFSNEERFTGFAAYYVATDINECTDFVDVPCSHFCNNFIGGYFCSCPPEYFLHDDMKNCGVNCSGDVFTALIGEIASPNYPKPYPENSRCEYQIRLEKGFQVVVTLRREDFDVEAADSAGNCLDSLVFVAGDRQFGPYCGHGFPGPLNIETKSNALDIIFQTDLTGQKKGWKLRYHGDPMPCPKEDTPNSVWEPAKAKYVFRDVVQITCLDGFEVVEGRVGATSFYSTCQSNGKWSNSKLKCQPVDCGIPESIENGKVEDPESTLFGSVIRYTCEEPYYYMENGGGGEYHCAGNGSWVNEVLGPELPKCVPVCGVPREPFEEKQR
Excerpt: as §1

[3] = test system: shunt pathway activated by cobra venom factor; experiment: Test, Code 036 (C-Shunt inhibitor); format: cell-based, human; conditions: activity in wells of a serial two-fold dilution assay; higher well number indicates higher activity
Excerpt: as §1

Compound | inhibition at 200 mg/kg ([1]; 0.5 h, 30 minutes) [%] | inhibition at 200 mg/kg ([1]; 1 h, 60 minutes) [%] | inhibition at 200 mg/kg ([1]; 2 h, 120 minutes) [%] | C-Late 0.35* Wells [2] | Cl 0.26* Wells (activated human C1) | Shunt Inhibition 0.36* Wells [3]
O=S(=O)(O)c1cc(NS(=O)(=O)c2ccc3c(S(=O)(=O)Nc4cc(S(=O)(=O)O)cc(S(=O)(=O)O)c4)cc(S(=O)(=O)Nc4cc(S(=O)(=O)O)cc(S(=O)(=O)O)c4)cc3c2)cc(S(=O)(=O)O)c1 [5,5',5"-[1,3,6-Naphthalenetris(sulfonylimino)]tris-1,3-benzenedisulfonic acid hexasodium salt] | -85 | -86 | -86 | N |  | 
O=S(=O)(O)c1ccc(NS(=O)(=O)c2ccc3c(S(=O)(=O)Nc4ccc(S(=O)(=O)O)cc4)cc(S(=O)(=O)Nc4ccc(S(=O)(=O)O)cc4)cc3c2)cc1 [4,4',4"-[1,3,6-Naphthalenetris(sulfonylimino)]trisbenzenesulfonic acid trisodium salt] |  |  |  | N | +4 Wells | N
